pIC50: −log10 of the molar value. Like-named read-outs stand apart in the source and are kept apart here.
Tested on: recombinant rabies virus 1088 strain (1088/GLuc)
Assay: microbe, parasite or virus in culture
Format: cell-based, rabies virus in Neuro-2a cells
Settings: read-out: Anti-rabies activity

| Structure (SMILES) | pIC50 (Lyssavirus rabies, N2a, 72 h) | pIC50 |
| --- | --- | --- |
| CC(C)CC(=O)OCC1=CCN2C3CC(NC(=O)Cc4ccccc4)C1C2CN(Cc1ccccc1)C3 (stereo not shown) [12aab] | > 5.00 | – |
| COc1ccc(CN2C[C@@H]3C[C@H]4C(=O)N[C@]3(C(=O)NCc3ccccc3)[C@@H]2[C@@H]4CC(C)C)cc1 (relative stereo) [IB-5, (3S, 3aS, 6R′, 7R*, 7aS*) —N-benzyl-7-isobutyl-1-(4-methoxybenzyl)-5-oxooctahydro-3@H-3,6-methanopyrrolo[3,2-b]pyridine-3a-carboxamide] | – | > 5.00 |
| COc1ccc(CN2CC3CC4(C(=O)NCc5ccccc5)NC(=O)C3C2C4CC(C)C)cc1F (stereo not shown) [IF-801] | > 5.00 | – |
| COc1ccc(CN2C[C@H]3C[C@]4(C(=O)NCc5ccccc5)NC(=O)[C@H]3[C@H]2[C@H]4CC(C)C)cc1 (relative stereo) [IF-6, (3S*, 3aR*, 6S*, 7R*, 7aR*) —N-benzyl-7-isobutyl-1-(4-methoxybenzyl)-4-oxooctahydro-6H-3,6-methanopyrrolo[3,2-c]pyridine-6-carboxamide] | > 5.00 | – |

Reference: patent US20250304616A1, “NOVEL PEPT[…] AND DESIGN” (priority 2020, published 2025)
